Read-outs that look alike come from different tables or passages of the source.
What was measured:
tyrosinase = test: Tyrosinase zymography; format: biochemical, mushroom; conditions: L-DOPA staining, compared to untreated control
mushroom tyrosinase [1] = target: T1, mushroom tyrosinase (Agaricus bisporus, UniProt C7FF04); test: Mushroom tyrosinase inhibition assay; format: biochemical; conditions: for inhibition at 30 µM: read-out: percent inhibition
mushroom tyrosinase [2] = target: T1, mushroom tyrosinase; conditions: cited from earlier work

T1 sequence (C7FF04 1-392): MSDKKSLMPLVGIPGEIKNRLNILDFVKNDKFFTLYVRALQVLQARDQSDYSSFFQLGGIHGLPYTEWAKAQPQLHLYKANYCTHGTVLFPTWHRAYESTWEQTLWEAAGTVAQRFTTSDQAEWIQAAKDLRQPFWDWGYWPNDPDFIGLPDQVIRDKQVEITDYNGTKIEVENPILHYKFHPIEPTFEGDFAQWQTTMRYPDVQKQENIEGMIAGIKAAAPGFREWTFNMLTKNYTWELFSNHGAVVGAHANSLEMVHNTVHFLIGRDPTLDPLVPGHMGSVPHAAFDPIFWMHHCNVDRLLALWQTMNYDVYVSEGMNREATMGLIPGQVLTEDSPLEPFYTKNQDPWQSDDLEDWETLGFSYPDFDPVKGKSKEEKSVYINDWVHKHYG

Nc1nc(N)c(N=Nc2ccccc2[N+](=O)[O-])c(Cl)n1 [Compound 1a, 6-chloro-5-((2-nitrophenyl)diazenyl) pyrimidine-2,4-diamine]
band intensity on zymogram (inhibitory effect on tyrosinase activity) (tyrosinase): lightest bands

Nc1nc(N)c(N=Nc2ccc([N+](=O)[O-])cc2)c(Cl)n1 [Compound 1b, 6-chloro-5-((4-nitrophenyl)diazenyl) pyrimidine-2,4-diamine]
inhibition at 30 µM (mushroom tyrosinase [1]): 23.7%

CC(=O)Nc1ccc(N=Nc2c(N)nc(N)nc2Cl)cc1 [Compound 1d, N-(4-((2,4-diamino-6-chloropyrimidin-5-yl)diazenyl)phenyl) acetamide]
band intensity on zymogram (inhibitory effect on tyrosinase activity) (tyrosinase): lightest bands | IC50 (mushroom tyrosinase [1]): 24.5 µM

COc1ccc(N=Nc2c(N)nc(N)nc2Cl)cc1 [Compound 1e, 6-chloro-5-((4-methoxyphenyl)diazenyl) pyrimidine-2,4-diamine]
inhibition at 30 µM (mushroom tyrosinase [1]): 55.1%

COc1ccc(N=Nc2c(N)nc(N)nc2N)cc1 [Compound 2d, 5-((4-methoxyphenyl)diazenyl) pyrimidine-2,4,6-triamine]
band intensity on zymogram (inhibitory effect on tyrosinase activity) (tyrosinase): minimal inhibitory effect

Cc1cc(=O)[nH]c(=S)[nH]1 [methylthiouracil]
IC50 (mushroom tyrosinase [2]): 142 µM | Inhibition type (mushroom tyrosinase [2]): noncompetitive inhibitors

O=c1cc[nH]c(=S)[nH]1 [thiouracil]
IC50 (mushroom tyrosinase [2]): 128 µM | Inhibition type (mushroom tyrosinase [2]): noncompetitive inhibitors
